Legend:
ICR mice [1] = assay: Mouse tail-hanging test of the debris mixture (Experiment 11); assay type: in vivo; details: 3 mg/kg P.O. 7 days; 1 h after last dose; last 5 of 6 min
Source text: Nine (9) kg of the remained ginseng debris, 7 kg of the remained liquorice debris and 0.9 kg of the jujuba debris from the Embodiments 1 and 4 extraction procedures are collected, dried, pulverized, and mixed well for obtaining the debris mixture containing the trace amount of ginsenoside Rg1 and Rb1, glycyrrhizic acid and jujuba cAMP. The control experiment of examining the influence of the debris in the mouse tail-hanging test is proceeded. 11.1 Experimental animals: ICR mice, male, 22.0±2 g of body weight, secondary, are provided by the Experimental Animal Science Department of Capital Medical University, Beijing. 11.2 Experiment pharmaceuticals: The debris mixture is provided by Beijing Wonner Biotech. […] High dose of debris mixture (160 mg/kg/d); 2. middle dose of debris mixture (80 mg/kg/d); and 3. low dose of debris mixture (40 mg/kg/d). 11.5.1 Group division and administration of drug: The mice are grouped randomly with 10 mice in each group. 1. […] The time of non-movement of the mouse for the last 5 minutes is recorded. 11.5.3 Statistic calculation: The experimental data are represented as X±SD, and the experimental result is calculated as ANOVA by SPSS 11.5 statistic software.

[2] = test system: unpredictable long-term stimulus model; assay: Open field activity experiment, unpredictable long-term stimulus model (Experiment 8); assay type: in vivo, rat; details: 2 mg/kg/d into the stomach, 24 days; within 3 minutes
Source text: 7.5.1 Open field activity experiment: The open field activity box (1 m×1 m×0.4 m) is constructed by the light blue plywood and the aluminum alloy frame. The box bottom is separated into 25 grids (20 cm×20 cm for each grid), the circumference is the peripheral grids (16 grids), and others are the central grids (9 grids). The rat is placed in the center of the central grids, and the rat's cross-grid number (the number of crossing into the neighboring gird more than 3 claws) and rat's standing number (two forelimbs leaving the ground for more than 1 cm) are calculated/observed within 3 minutes.
Unpredictable long-term stimulus model: Health Wistar male rats, secondary, 240˜270 g of body weight, are purchased from Beijing Vital River Experimental Animal Technology Ltd. Co. (The quality certificate number: SOCK (JING) 2002-2003).
The above pharmaceuticals are prepared with 0.5% of sodium carboxymethylcellulose (CMC-Na) for feeding into the stomach. Benzylpenicillin sodium for injection is the product of North China Pharmaceutical Huasheng Co. Ltd. (Lot: S0511204), and norepinephrine (NE) and 5-hydrotryptamine (5-HT) standards are the products of Sigma Co. Other reagents are all marketed. […]
8.6 Statistic calculation: The experimental data are represented as […], and the experimental result is calculated as ANOVA by SPSS 11.5 statistic software.

ICR mice [3] = assay: Resetpine-induced mouse body temperature decrease experiment (Experiment 4); assay type: in vivo
Source text: 4.1 Experimental animals: ICR mice, male, 22.0±2 g of body weight, secondary, are provided by the Experimental Animal Science Department of Capital Medical University, Beijing.
4.2 Experiment pharmaceuticals: The pharmaceutical of Embodiment 2 is provided by Beijing Wonner Biotech. Ltd. Co., Paroxetine (Paxil) is the product of Zhong Mei Tianjin Smith Kline pharmaceuticals Co. Ltd., and Resetpine is the product of Guangdong BangMin Pharmaceutical Co., Ltd.
4.4 Dose designs: 1. High dose of Embodiment 2 (80 mg/kg/d); 2. middle dose of Embodiment 2 (40 mg/kg/d); and 3. low dose of Embodiment 2 (20 mg/kg/d).
4.5.1 Group division and administration of drug: The mice are grouped randomly, and 10 mice are in each group. 1. High dose of Embodiment 2 (80 mg/kg, P.O., administered for 7 days); 2. middle dose of Embodiment 2 (40 mg/kg, P.O., administered for 7 days); 3. low dose of Embodiment 2 (20 mg/kg, P.O., administered for 7 days); 4.
4.5.2 Experimental method: After 1 hour of the last administration of drug on the eighth day, the mouse's anal temperature is determined. […] After 4 hours of injecting Resetpine, the mouse's anal temperature is determined once again. […]
4.5.3 Statistic calculation: The experimental data are represented as X±SD, and the experimental result is calculated as ANOVA by SPSS 11.5 statistic software.

Structure (SMILES): Fc1ccc([C@@H]2CCNC[C@H]2COc2ccc3c(c2)OCO3)cc1 [Paroxetine]
- Time of non-movement (ICR mice [1]): 38.37 ± 20.76 s
- Horizontal movement (cross-grid number) [2]: 61.85 ± 21.68
- Vertical movement (standing number) [2]: 14.69 ± 4.2
- Decreased temperature (ICR mice [3]; 3 mg/kg P.O. 7 days, 4 h after Resetpine 2 mg/kg i.p.): 2.38 ± 0.69 °C
- Effect on reduced body temperature induced by Resetpine (in words) (ICR mice [3]; middle dose of Embodiment 2, Paroxetine): decrease the reduced body temperature induced by Resetpine

Reference: patent US20100311674A1, “PHARMACEUTICAL COMPOSITIONS WITH A MECHANISM OF MULTI-TARGET RECEPTOR RETROACTION FOR TREATING DEPRESSION” (Yu-Fen Chi, priority 2007, published 2010)
